This series has as its system rodent carcinogenicity bioassays, tumor incidence. The series is described as follows: CCRIS carcinogenicity studies. The essentials: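 NCI-built, expert-reviewed records of carcinogenicity and related test outcomes (mutagenicity, tumor promotion/inhibition) compiled from published and report sources, historical span 1985-2011, not updated.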

Activity calls are given as the source filed them. The rule behind the calls is not given here.

As to `CCNc1nc(Cl)nc(NC(C)C)n1`, the carcinogen call (Species: RAT, Strain/Sex: F344/FEMALE, Route: ORAL, Dose: 0, 10, 70, 200, 400 PPM IN DIET FOR 24 MO (STUDY DURATION: 24 MO), Dose: 0, 10, 70, 200, 400 PPM IN DIET FOR 24 MO (STUDY DURATION: 24 MO)) is “inactive; negative”; the carcinogen call (Species: RAT, Strain/Sex: F344/LATI/FEMALE, Route: ORAL, Dose: 0, 500, 1000 PPM TECHNICAL GRADE IN FEED FOR 8 WK THEN 0, 375, 750 PPM FOR LIFE SPAN (STUDY DURATION: LIFE SPAN), Dose: 0, 500, 1000 PPM TECHNICAL GRADE IN FEED FOR 8 WK THEN 0, 375, 750 PPM FOR LIFE SPAN (STUDY DURATION: LIFE SPAN), Tumor Site: Type of Lesion: UTERUS: ADENOCARCINOMA, HEMATOPOIETIC SYSTEM: LEUKEMIA OR LYMPHOMA) was “active; positive”; the carcinogen call (Species: RAT, Strain/Sex: F344/LATI/MALE, Route: ORAL, Dose: 0, 500, 1000 PPM TECHNICAL GRADE IN FEED FOR 8 WK THEN 0, 375, 750 PPM FOR LIFE SPAN (STUDY DURATION: LIFE SPAN), Dose: 0, 500, 1000 PPM TECHNICAL GRADE IN FEED FOR 8 WK THEN 0, 375, 750 PPM FOR LIFE SPAN (STUDY DURATION: LIFE SPAN), Tumor Site: Type of Lesion: MAMMARY GLAND: BENIGN TUMOR) was “active; positive”; the carcinogen call (Species: RAT, Strain/Sex: SPRAGUE-DAWLEY/FEMALE, Route: ORAL, Dose: 0, 70, 400 PPM IN DIET FOR 24 MO (STUDY DURATION: 24 MO), Dose: 0, 70, 400 PPM IN DIET FOR 24 MO (STUDY DURATION: 24 MO)) is “inactive; negative”.

As to `C1CO1`, the carcinogen call (Species: MOUSE, Strain/Sex: B6C3F1/FEMALE, Route: INHALATION, Dose: 0, 50, 100 PPM 6 HR/D 5 D/WK FOR 102 WK (STUDY DURATION: 105 WK), Dose: 0, 50, 100 PPM 6 HR/D 5 D/WK FOR 102 WK (STUDY DURATION: 105 WK), Tumor Site: Type of Lesion: LUNG: ALVEOLAR/BRONCHIOLAR ADENOMA, LUNG: ALVEOLAR/BRONCHIOLAR CARCINOMA, LUNG: ALVEOLAR/BRONCHIOLAR ADENOMA OR CARCINOM, Tumor Site: Type of Lesion: LUNG: ALVEOLAR/BRONCHIOLAR ADENOMA, LUNG: ALVEOLAR/BRONCHIOLAR CARCINOMA, LUNG: ALVEOLAR/BRONCHIOLAR ADENOMA OR CARCINOM) was “active; positive”; the carcinogen call (Species: MOUSE, Strain/Sex: B6C3F1/MALE, Route: INHALATION, Dose: 0, 50, 100 PPM 6 HR/D 5 D/WK FOR 102 WK (STUDY DURATION: 105 WK), Dose: 0, 50, 100 PPM 6 HR/D 5 D/WK FOR 102 WK (STUDY DURATION: 105 WK), Tumor Site: Type of Lesion: LUNG: ALVEOLAR/BRONCHIOLAR CARCINOMA, LUNG: ALVEOLAR/BRONCHIOLAR ADENOMA OR CARCINOMA, HARDERIAN GLAND: PAPILLARY CYSTAD, Tumor Site: Type of Lesion: LUNG: ALVEOLAR/BRONCHIOLAR CARCINOMA, LUNG: ALVEOLAR/BRONCHIOLAR ADENOMA OR CARCINOMA, HARDERIAN GLAND: PAPILLARY CYSTAD) was “active; positive”; the carcinogen call (Species: MOUSE, Strain/Sex: NMRI/FEMALE, Route: SUBCUTANEOUS, Dose: 0, 0.1, 0.3, 1 MG/MOUSE IN TRICAPRYLIN 1/WK FOR 95 WK (STUDY DURATION: 110 WK), Dose: 0, 0.1, 0.3, 1 MG/MOUSE IN TRICAPRYLIN 1/WK FOR 95 WK (STUDY DURATION: 110 WK), Tumor Site: Type of Lesion: INJECTION SITE: TUMOR) is “active; positive”; the carcinogen call (Species: RAT, Strain/Sex: F344/FEMALE, Route: INHALATION, Dose: 0, 10, 33, 100 PPM 6 HR/D 5 D/WK FOR STUDY DURATION (STUDY DURATION: 2 YR), Dose: 0, 10, 33, 100 PPM 6 HR/D 5 D/WK FOR STUDY DURATION (STUDY DURATION: 2 YR), Tumor Site: Type of Lesion: BRAIN: ASTROCYTOMA, MIXED GLIOMA, OLIGODENDROGLIOMA, MALIGNANT RETICULOSIS) is “active; positive”; the carcinogen call (Species: RAT, Strain/Sex: F344/FEMALE, Route: INHALATION, Dose: 0, 10, 33, 100 PPM 6 HR/D 5 D/WK FOR UP TO 2 YR (STUDY DURATION: 24 MO), Dose: 0, 10, 33, 100 PPM 6 HR/D 5 D/WK FOR UP TO 2 YR (STUDY DURATION: 24 MO)) was “inactive; negative”; the carcinogen call (Species: RAT, Strain/Sex: F344/MALE, Route: INHALATION, Dose: 0, 10, 33, 100 PPM 6 HR/D 5 D/WK FOR STUDY DURATION (STUDY DURATION: 2 YR), Dose: 0, 10, 33, 100 PPM 6 HR/D 5 D/WK FOR STUDY DURATION (STUDY DURATION: 2 YR), Tumor Site: Type of Lesion: BRAIN: GRANULAR CELL TUMOR, ASTROCYTOMA, MIXED GLIOMA, OLIGODENDROGLIOMA, MALIGNANT RETICULOSIS) is “active; positive”. Moreover, the carcinogen call runs as follows: (Species: RAT, Strain/Sex: F344/MALE, Route: INHALATION, Dose: 0, 10, 33, 100 PPM 6 HR/D 5 D/WK FOR UP TO 2 YR (STUDY DURATION: 24 MO), Dose: 0, 10, 33, 100 PPM 6 HR/D 5 D/WK FOR UP TO 2 YR (STUDY DURATION: 24 MO), Tumor Site: Type of Lesion: BRAIN: GRANULAR CELL TUMOR OR GLIAL CELL TUMOR OR ASTROCYTOMA OR MALIGNANT RETICULOSIS) “active; positive”; (Species: RAT, Strain/Sex: F344/MALE, Route: INHALATION, Dose: 0, 50, 100 PPM 7 HR/D 5 D/WK FOR 24 MO (STUDY DURATION: LIFETIME), Dose: 0, 50, 100 PPM 7 HR/D 5 D/WK FOR 24 MO (STUDY DURATION: LIFETIME), Tumor Site: Type of Lesion: HEMATOPOIETIC SYSTEM: MONONUCLEAR CELL LEUKEMIA, PERITONEUM: MESOTHELIOMA, BRAIN: GLIOMA, Tumor Site: Type of Lesion: HEMATOPOIETIC SYSTEM: MONONUCLEAR CELL LEUKEMIA, PERITONEUM: MESOTHELIOMA, BRAIN: GLIOMA) “active; positive”; (Species: RAT, Strain/Sex: F344/MALE, Route: INHALATION, Dose: 0, 50, 100 PPM 7 HR/D 5 D/WK FOR 104 WK (STUDY DURATION: 2 YR), Dose: 0, 50, 100 PPM 7 HR/D 5 D/WK FOR 104 WK (STUDY DURATION: 2 YR), Tumor Site: Type of Lesion: BRAIN: GLIOMA (MIXED CELL), PERITONEUM: MESOTHELIOMA, PITUITARY GLAND: ADENOMA, SPLEEN: MONONUCLEAR CELL LEUKEMIA, Tumor Site: Type of Lesion: BRAIN: GLIOMA (MIXED CELL), PERITONEUM: MESOTHELIOMA, PITUITARY GLAND: ADENOMA, SPLEEN: MONONUCLEAR CELL LEUKEMIA) “active; positive”; (Species: RAT, Strain/Sex: SPRAGUE-DAWLEY/FEMALE, Route: GAVAGE, Dose: 7.5, 30 MG/KG IN SALAD OIL 2/WK FOR UP TO 150 WK, Tumor Site: Type of Lesion: FORESTOMACH: SQUAMOUS CELL CARCINOMA) “active; positive”.

For the compound `O=[N+]([O-])c1cccc2c1-c1cccc3c([N+](=O)[O-])ccc-2c13`, the carcinogen call is “active; positive” (Species: RAT, Strain/Sex: F344/DUCRJ/MALE, Route: PULMONARY IMPLANT, Dose: 0, 0.2 MG AS A SUSPENSION IN EQUAL VOL OF BEESWAX AND TRICAPRYLIN IMPLANTED IN LEFT LUNG (STUDY DURATION: 70 WK), Tumor Site: Type of Lesion: LUNG: TUMOR); “active; positive” (Species: RAT, Strain/Sex: F344/MALE, Route: LUNG IMPLANT, Dose: 0, 200 UG IN BEESWAX/TRICAPRYLIN INTO LOWER LEFT LUNG ONCE (STUDY DURATION: 100 WK), Tumor Site: Type of Lesion: LUNG: SQUAMOUS CELL CARCINOMA); “active; positive” (Species: RAT, Strain/Sex: F344/MALE, Route: PULMONARY IMPLANT, Dose: 0, 200 UG IN 50 µL BEESWAX/TRICAPRYLIN IMPLANTED FOR UP TO 100 WK (STUDY DURATION: 100 WK), Tumor Site: Type of Lesion: LUNG: TUMOR).

Consider `Nc1ncc([N+](=O)[O-])s1`, for which the carcinogen call is “inactive; negative” (Species: MOUSE, Strain/Sex: B6C3F1/FEMALE, Route: ORAL, Dose: 0, 50, 100 PPM IN DIET, Dose: 0, 50, 100 PPM IN DIET); “inactive; negative” (Species: MOUSE, Strain/Sex: B6C3F1/MALE, Route: ORAL, Dose: 0, 50, 100 PPM IN DIET, Dose: 0, 50, 100 PPM IN DIET); “inactive; negative” (Species: RAT, Strain/Sex: F344/FEMALE, Route: ORAL, Dose: 0, 300, 600 PPM IN DIET, Dose: 0, 300, 600 PPM IN DIET).

For the compound `Cc1cc(N=Nc2ccccc2C)ccc1N`, the carcinogen call is “active; positive” (Species: DOG, Route: ORAL, Tumor Site: Type of Lesion: LIVER, GALL BLADDER, URINARY BLADDER, Tumor Site: Type of Lesion: LIVER, GALL BLADDER, URINARY BLADDER); “active; positive” (Species: HAMSTER, Route: ORAL, Tumor Site: Type of Lesion: LIVER, URINARY BLADDER); “active; positive” (Species: MOUSE, Route: INTRAPERITONEAL, ORAL, SUBCUTANEOUS, DERMAL, Tumor Site: Type of Lesion: LIVER); “active; positive” (Species: MOUSE, Route: ORAL, SUBCUTANEOUS, Tumor Site: Type of Lesion: LUNG); “active; positive” (Species: RAT, Route: ORAL, SUBCUTANEOUS, Tumor Site: Type of Lesion: LIVER).

The record behind these values is PubChem BioAssay AID1259411 (Chemical Carcinogenesis Research Information System (CCRIS), 2018).
